Experimental data as given in article PMC11863921 (BMC Biology, 2025).
“Also recorded” adds a separate entry of the source.

Tests used:
[1] = target: Acanthaster cf. solaris relaxin family peptide receptor/leucine-rich repeat G protein-coupled receptor 3, N-terminally modified (prolactin signal peptide, FLAG tag) (Acanthaster cf. solaris)
[2] = system: ArubLGR4; assay: Luminescence (GFP-aequorin G5A, GqS5) assay in CHO-K1 cells transfected with ArubLGR4; format: cell-based, A. rubens; details: for luminescence versus basal media: 10^−5 M; for luminescence response: 10^−14 to 10^−5 M, Fig. 6 E, F
Protocol: (§1) ArubRGP1 and ArubRGP2 were tested as ligands for ArubRXFP/LGR3 (isoform X2; XP_033631990.1) and ArubLGR4 (isoform X3; XP_033635731.1) by co-transfection of CHO-K1 cells stably expressing the green fluorescent protein (GFP) – apoaequorin construct G5A [25] with the chimeric G-protein Gqs5, which is a Gq-type protein modified to incorporate Gs-type sequences that enable it to interact with GPCRs that preferentially couple to Gs-type G-proteins. Synthetic ArubRGP1 or ArubRGP2 were initially tested at a concentration of 10^−5 M, comparing with luminescence measured in transfected cells incubated in basal media without the addition of ArubRGP1 or ArubRGP2.
A. rubens RGP1 and RGP2 (ArubRGP1, ArubRGP2) were custom synthesized with a purity of > 95%, as reported previously. Two genes encoding relaxin receptor-related proteins were identified in A. rubens and, informed by phylogenetic analysis, these were named ArubRXFP/LGR3 and ArubLGR4. Then cDNAs encoding these proteins were custom synthesized with the inclusion of a 5′ partial Kozak translation initiation sequence (GCCACC) and incorporated into the mammalian expression vector pcDNA 3.1( +) (Genscript, Hong Kong) (Additional file 18: Dataset S11). Likewise, a cDNA encoding an N-terminally modified form of ArubRXFP/LGR3 incorporating an N-terminal signal peptide from the bovine prolactin precursor was also synthesized (with codon optimization for mammalian expression) (Genewiz, Takeley, UK) and this is referred to henceforth as ArubRXFP/LGR3(modified) (Additional file 18: Dataset S11). Chinese hamster ovary cells (CHO-K1) stably expressing the calcium-sensitive aequorin fusion protein G5A were used as an expression system. This cell line was supplied by Prof. Gaspar Jékely (University of Heidelberg, Germany) and tested negative for mycoplasma contamination using a MycoAlert PLUS kit (Lonza, Switzerland). […]
(§2) AruRGP1 and AruRGP2 were tested as ligands for the A. rubens receptors using luminescence-based assays, which have been described previously. […] A FLUOstar Omega Plate Reader (BMG LABTECH; FLUOstar Omega Series multi-mode microplate reader) with injectors was used to sequentially add transfected CHO-K1 cells to each test well of the microtiter plate and luminescence was recorded over a 35-s period. Luminescence data were integrated over the 35 s measurement period and the mean of the triplicate measurements was calculated. Responses were normalized to the maximum response obtained in each experiment (100% activation) and to luminescence measured with the vehicle media (0% activation) (Additional file 19: Dataset S12). […]

[3] = system: ArubRXFP/LGR3; assay: Luminescence (GFP-aequorin G5A, GqS5) assay in CHO-K1 cells transfected with ArubRXFP/LGR3; format: cell-based, A. rubens; details: for luminescence response at 10^−5 M versus background: basal media as background; for EC50: 10^−14 to 10^−5 M, 35 s, three independent transfections, four-parameter fit, read-out: EC50 for induced luminescence; for luminescence response versus BSA control: 10–5 M, 30 s, one-way ANOVA with Bonferroni (***p < 0.001, *p < 0.1), Fig. S6; for dose-dependent triggering of luminescence: Fig. 6 A, B
Protocol: as §1
A. rubens RGP1 and RGP2 (ArubRGP1, ArubRGP2) were custom synthesized with a purity of > 95%, as reported previously. Two genes encoding relaxin receptor-related proteins were identified in A. rubens and, informed by phylogenetic analysis, these were named ArubRXFP/LGR3 and ArubLGR4. Then cDNAs encoding these proteins were custom synthesized with the inclusion of a 5′ partial Kozak translation initiation sequence (GCCACC) and incorporated into the mammalian expression vector pcDNA 3.1( +) (Genscript, Hong Kong) (Additional file 18: Dataset S11). Likewise, a cDNA encoding an N-terminally modified form of ArubRXFP/LGR3 incorporating an N-terminal signal peptide from the bovine prolactin precursor was also synthesized (with codon optimization for mammalian expression) (Genewiz, Takeley, UK) and this is referred to henceforth as ArubRXFP/LGR3(modified) (Additional file 18: Dataset S11). Chinese hamster ovary cells (CHO-K1) stably expressing the calcium-sensitive aequorin fusion protein G5A were used as an expression system. This cell line was supplied by Prof. Gaspar Jékely (University of Heidelberg, Germany) and tested negative for mycoplasma contamination using a MycoAlert PLUS kit (Lonza, Switzerland). The CHO-K1 cells were cultured in a culture medium comprising DMEM/F12, 10% fetal bovine serum, antibiotic–antimycotic, and […] Geneticin G418 sulfate (all purchased from Thermo Fisher scientific, Oxford, UK; cat no. 11039047, 10,082,147, 15,240,062, and 10,131,035, respectively.) When the cells reached 80% confluency, they were co-transfected with plasmids containing cDNAs encoding ArubRXFP/LGR3, ArubRXFP/LGR3(modified), or ArubLGR4 and a plasmid encoding the chimeric G-protein GqS5 (Addgene, Watertown USA), which enables GPCRs that preferentially couple to Gq-type or Gs-type proteins to signal via the phospholipase-C signaling pathway.
AruRGP1 and AruRGP2 were tested as ligands for the A. rubens receptors using luminescence-based assays, which have been described previously. Thus, 48 h after transfection, cells were detached by using PBS buffer (pH7.4; Thermofisher Scientific, Oxford, UK; cat no.10010023) supplemented with a final concentration of 5 mM EDTA pH8.0 (Thermo Fisher Scientific, Oxford, UK; cat no.15575020). Cells were then washed with DMEM/F12 buffer and then incubated with […] coelenterazine-H (Thermo Fisher Scientific, Oxford, UK; cat no. C6780) at room temperature with stirring for 3 h. ArubRGP1 or ArubRGP2 were prepared at concentrations ranging from 10^−14 to 10^−5 M and then were pipetted into 96-well plates (Costar Assay microplate, REF: 3903 or Falcon 96 well microplate, Code: 353,377). A FLUOstar Omega Plate Reader (BMG LABTECH; FLUOstar Omega Series multi-mode microplate reader) with injectors was used to sequentially add transfected CHO-K1 cells to each test well of the microtiter plate and luminescence was recorded over a 35-s period. Luminescence data were integrated over the 35 s measurement period and the mean of the triplicate measurements was calculated. Responses were normalized to the maximum response obtained in each experiment (100% activation) and to luminescence measured with the vehicle media (0% activation) (Additional file 19: Dataset S12). […]

[4] = system: CHO-K1 cells transfected with an empty pcDNA3.1 + vector; assay: Luminescence (GFP-aequorin G5A, GqS5) assay in CHO-K1 cells transfected with empty pcDNA3.1 vector; format: cell-based, Chinese hamster; details: 10^−14 to 10^−5 M, Fig. 6 G, H
Protocol: as §1, with “ArubRGP2. […]” for “ArubRGP2.”
as §2

[5] = system: modified ArubRXFP/LGR3; assay: Luminescence (GFP-aequorin G5A, GqS5) assay in CHO-K1 cells transfected with modified ArubRXFP/LGR3; format: cell-based, A. rubens; details: Fig. 6 C, D
Text: Thus, modified ArubRXFP/LGR3 was similar in this respect to the modified AsolRXFP/LGR3 protein (Fig. 5).
A. rubens RGP1 and RGP2 (ArubRGP1, ArubRGP2) were custom synthesized with a purity of > 95%, as reported previously. Two genes encoding relaxin receptor-related proteins were identified in A. rubens and, informed by phylogenetic analysis, these were named ArubRXFP/LGR3 and ArubLGR4. Then cDNAs encoding these proteins were custom synthesized with the inclusion of a 5′ partial Kozak translation initiation sequence (GCCACC) and incorporated into the mammalian expression vector pcDNA 3.1( +) (Genscript, Hong Kong) (Additional file 18: Dataset S11). […]
as §2

[6] = target: modified ArubRXFP/LGR3 (N-terminal region with the predicted internal signal peptide replaced by the prolactin precursor signal peptide) (Asterias rubens)
[7] = target: Asterias rubens relaxin family peptide receptor/leucine-rich repeat G protein-coupled receptor 3 (isoform X2) (Asterias rubens)
[8] = target: Asterias rubens relaxin family peptide receptor/leucine-rich repeat G protein-coupled receptor 3 (isoform X2) (Asterias rubens); remark: listed apart in the source

Substance: Acanthaster cf. solaris relaxin-like gonad-stimulating peptide 2 (ligand)
- percentage of forskolin-induced cAMP levels (CRE reporter) in CHO-AsolRXFP/LGR3 cells at 10 µM AsolRGP2; no dose-response curve could be fitted (% forskolin response) [1]: 12.2

Substance: Asterias rubens Relaxin-like gonad-stimulating peptide 1 [ArubRGP1]
- luminescence versus basal media [2]: not significantly different
- luminescence response [2]: no response; also recorded: do not trigger luminescence
- luminescence response at 10^−5 M versus background [3]: approximately twice the background luminescence
- EC50 [3]: 22.5 nM
- luminescence response versus BSA control [3]: significantly higher
- dose-dependent triggering of luminescence [3]: trigger dose-dependent luminescence
- luminescence response [4]: no response; also recorded: do not trigger luminescence
- dose-dependent triggering of luminescence [5]: trigger dose-dependent luminescence

Substance: Asterias rubens Relaxin-like gonad-stimulating peptide 2 [ArubRGP2]
- luminescence versus basal media [2]: not significantly different
- luminescence response [2]: no response; also recorded: do not trigger luminescence
- luminescence response at 10^−5 M versus background [3]: approximately twice the background luminescence
- EC50 [3]: 383 nM
- luminescence response versus BSA control [3]: significantly higher
- dose-dependent triggering of luminescence [3]: trigger dose-dependent luminescence
- luminescence response [4]: no response; also recorded: do not trigger luminescence
- dose-dependent triggering of luminescence [5]: trigger dose-dependent luminescence

Substance: Asterias rubens relaxin-like gonad-stimulating peptide 1 (ligand)
- EC50 of peptide-induced luminescence (GFP-apoaequorin G5A, chimeric G-protein GqS5) in CHO-K1 cells transfected with modified ArubRXFP/LGR3 [6]: 110 nM
- EC50 of peptide-induced luminescence (GFP-apoaequorin G5A, chimeric G-protein GqS5) in CHO-K1 cells transfected with ArubRXFP/LGR3, 10^-14 to 10^-5 M [7]: 22.5 nM
- EC50 of peptide-induced luminescence (GFP-apoaequorin G5A, chimeric G-protein GqS5) in CHO-K1 cells transfected with ArubRXFP/LGR3 [8]: 25 nM
